Data reported in publication PMC10739838, “Limited high-throughput screening compatibility of the phenuivirus cap-binding domain” (Scientific Reports, 2023).
“And” between values parts separate entries of the source, which are not always exact repeats. Equal values may be shown once. Read-outs that look alike come from different tables or passages of the source.

Assays:
SFTSV CBD [1] = target: T1, SFTSV CBD (Dabie bandavirus, UniProt I0DF35); details: cited from earlier work
SFTSV CBD [2] = target: T1, SFTSV CBD; assay type: binding
SFTSV CBD [3] = target: T1, SFTSV CBD; assay type: binding; remark: listed apart in the source
SFTSV CBD [4] = target: T1, SFTSV CBD; details: cited from earlier work; remark: listed apart in the source
PB2 CBD = PB2 CBD (Influenza A virus, UniProt P31345)
RVFV CBD [5] = target: T2, RVFV CBD (Rift valley fever virus, UniProt P27316); details: cited from earlier work
RVFV CBD [6] = target: T2, RVFV CBD; assay type: binding
SFTSV CBD [7] = target: T1, SFTSV CBD; assay type: binding; remark: listed apart in the source
SFTSV CBD [8] = target: T1, SFTSV CBD; assay type: binding; remark: listed apart in the source
human eIF4E = human eIF4E (Homo sapiens, UniProt P06730); assay type: binding
Chain of human eIF4E (P06730 whole entry): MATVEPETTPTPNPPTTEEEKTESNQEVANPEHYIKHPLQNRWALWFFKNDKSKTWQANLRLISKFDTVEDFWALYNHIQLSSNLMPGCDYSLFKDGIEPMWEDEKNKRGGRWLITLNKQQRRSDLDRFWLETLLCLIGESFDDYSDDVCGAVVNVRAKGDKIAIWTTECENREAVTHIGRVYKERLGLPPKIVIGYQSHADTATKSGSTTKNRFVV

T1 sequence (I0DF35 1695-1810 limits assumed): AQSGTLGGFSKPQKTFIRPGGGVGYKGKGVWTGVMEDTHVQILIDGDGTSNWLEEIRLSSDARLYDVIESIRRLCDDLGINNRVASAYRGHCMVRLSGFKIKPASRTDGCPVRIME
T2 sequence (P27316 1706-1822 limits assumed): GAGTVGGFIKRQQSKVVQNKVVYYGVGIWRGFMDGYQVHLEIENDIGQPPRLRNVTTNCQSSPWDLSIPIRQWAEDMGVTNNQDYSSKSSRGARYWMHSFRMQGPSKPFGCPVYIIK
Chain of PB2 CBD (P31345 318-483 limits assumed): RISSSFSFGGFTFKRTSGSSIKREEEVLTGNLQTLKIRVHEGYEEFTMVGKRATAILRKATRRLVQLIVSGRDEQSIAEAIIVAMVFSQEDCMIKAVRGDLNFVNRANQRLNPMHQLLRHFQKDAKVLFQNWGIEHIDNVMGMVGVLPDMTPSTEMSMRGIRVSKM

SMILES	Effect on thermal stability of the protein (SFTSV CBD [1])	Kd (SFTSV CBD [3])	Effect on thermal stability of the protein (RVFV CBD [5])	Kd (SFTSV CBD [8])	other results
Cn1c[n+]([C@@H]2O[C@H](COP(=O)([O-])OP(=O)(O)OP(=O)(O)O)[C@@H](O)[C@H]2O)c2nc(N)[nH]c(=O)c21 [m^7GTP]	higher thermal stability	~6000 µM and 6100 µM and 10700 µM	higher thermal stability	–	Kd (SFTSV CBD [2]): ~1000 µM; Kd (SFTSV CBD [4]): 138 µM; Kd (PB2 CBD): 2.8 µM
O=C(O)[C@H]1C2CCC(CC2)[C@@H]1Nc1nc(-c2c[nH]c3ncc(F)cc23)ncc1F [pimodivir]	–	–	–	–	Effect on thermal stability of the protein (RVFV CBD [6]): destabilization of the protein; Effect on thermal stability of the protein (SFTSV CBD [7]): destabilization of the protein
CC[N+]1=C(/C=C/C=C/C=C2/N(CCCCCC(=O)NCCNC(=O)O[C@@H]3[C@H](O)[C@@H](COP(=O)(O)OP(=O)(O)OP(=O)([O-])O)O[C@H]3n3c[n+](C)c4c(=O)[nH]c(N)nc43)c3ccc(S(=O)(=O)O)cc3C2(C)C)C(C)(C)c2cc(S(=O)(=O)[O-])ccc21 [EDA-m^7GTP-Cy5]	–	–	–	55 µM and 32 µM and 36 µM	Kd (human eIF4E): 0.036 µM and 0.033 µM and 0.028 µM
Nc1ncnc2c1ncn2[C@@H]1O[C@H](COP(=O)(O)OP(=O)(O)OP(=O)(O)O)[C@@H](O)[C@H]1O [ATP]	–	20000 µM	–	–	–
CC[N+]1=C(/C=C/C=C/C=C2/N(CCCCCC(=O)NCCOCCOCCOCCOCCC(=O)Nc3ccc(OP(=O)([O-])OP(=O)(O)OP(=O)(O)OC[C@H]4O[C@@H](n5c[n+](C)c6c(=O)[nH]c(N)nc65)[C@H](O)[C@@H]4O)cc3)c3ccc(S(=O)(=O)O)cc3C2(C)C)C(C)(C)c2cc(S(=O)(=O)[O-])ccc21 [m^7GTP-γ-aminophenyl-PEG4-Cy5]	–	–	–	106 µM	–
Nc1nc2c(ncn2[C@@H]2O[C@H](COP(=O)(O)OP(=O)(O)OP(=O)(O)O)[C@@H](O)[C@H]2O)c(=O)[nH]1 [GTP]	not	20000 µM	not	–	SPR signal on injection of increasing concentrations (SFTSV CBD [2]): did not result in a dose-dependent signal increase
